ChEMBL document CHEMBL3769336, “Discovery of a Chemical Tool Inhibitor Targeting the Bromodomains of TRIM24 and BRPF” (J Med Chem, 2016)
Activity calls are given as the source filed them. The rule behind the calls is not given here.

Experiments:
[1] = target: T1, Peregrin (Homo sapiens, UniProt P55201); assay: Binding affinity to BRPF1B (unknown origin) by isothermal titration calorimetry
T1 sequence (P55201 whole entry): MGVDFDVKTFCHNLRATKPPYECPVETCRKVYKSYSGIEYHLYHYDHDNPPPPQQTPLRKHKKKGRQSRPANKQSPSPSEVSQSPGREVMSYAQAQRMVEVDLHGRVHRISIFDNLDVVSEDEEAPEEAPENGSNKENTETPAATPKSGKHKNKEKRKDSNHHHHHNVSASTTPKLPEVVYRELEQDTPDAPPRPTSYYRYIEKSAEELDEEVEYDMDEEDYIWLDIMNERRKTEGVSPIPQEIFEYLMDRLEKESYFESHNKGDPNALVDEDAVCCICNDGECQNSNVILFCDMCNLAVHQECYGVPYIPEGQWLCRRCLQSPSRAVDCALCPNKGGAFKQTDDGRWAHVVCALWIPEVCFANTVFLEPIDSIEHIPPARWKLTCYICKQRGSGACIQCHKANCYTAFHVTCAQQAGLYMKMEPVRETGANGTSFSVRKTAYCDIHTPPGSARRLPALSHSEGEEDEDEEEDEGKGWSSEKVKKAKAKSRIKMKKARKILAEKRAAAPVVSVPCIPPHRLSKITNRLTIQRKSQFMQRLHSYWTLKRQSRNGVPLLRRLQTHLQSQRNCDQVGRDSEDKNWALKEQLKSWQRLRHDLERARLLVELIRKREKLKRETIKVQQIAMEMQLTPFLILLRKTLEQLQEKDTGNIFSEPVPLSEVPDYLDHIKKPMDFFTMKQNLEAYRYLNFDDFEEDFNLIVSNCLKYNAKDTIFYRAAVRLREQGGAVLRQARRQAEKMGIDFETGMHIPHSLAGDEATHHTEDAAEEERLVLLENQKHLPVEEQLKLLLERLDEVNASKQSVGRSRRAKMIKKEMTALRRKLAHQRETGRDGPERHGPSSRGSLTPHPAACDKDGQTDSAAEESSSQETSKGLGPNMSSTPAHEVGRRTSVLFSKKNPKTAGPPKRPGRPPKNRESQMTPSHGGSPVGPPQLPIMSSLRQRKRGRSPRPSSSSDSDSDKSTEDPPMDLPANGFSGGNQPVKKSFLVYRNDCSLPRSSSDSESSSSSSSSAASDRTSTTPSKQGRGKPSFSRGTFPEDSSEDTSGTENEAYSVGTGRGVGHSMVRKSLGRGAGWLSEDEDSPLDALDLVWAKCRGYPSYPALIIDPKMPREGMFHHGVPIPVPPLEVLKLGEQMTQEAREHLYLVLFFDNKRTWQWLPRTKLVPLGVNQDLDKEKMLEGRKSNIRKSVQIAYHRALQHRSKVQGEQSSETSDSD

[2] = test system: MCF7; assay: Cytotoxicity against human MCF7 cells at 5x10'-5 M to 8x10'-8 M after 72 hrs by CellTiter-Glo assay; assay type: functional, cell-based
[3] = target: T2, Transcription intermediary factor 1-alpha (Homo sapiens, UniProt O15164); assay: Inhibition of N-terminal His6-SUMO-1-tagged recombinant human TRIM24 bromodomain expressed in Escherichia coli BL21(DE3)-R3-pRARE2 cells by Alpha Screen assay
T2 sequence (O15164 whole entry): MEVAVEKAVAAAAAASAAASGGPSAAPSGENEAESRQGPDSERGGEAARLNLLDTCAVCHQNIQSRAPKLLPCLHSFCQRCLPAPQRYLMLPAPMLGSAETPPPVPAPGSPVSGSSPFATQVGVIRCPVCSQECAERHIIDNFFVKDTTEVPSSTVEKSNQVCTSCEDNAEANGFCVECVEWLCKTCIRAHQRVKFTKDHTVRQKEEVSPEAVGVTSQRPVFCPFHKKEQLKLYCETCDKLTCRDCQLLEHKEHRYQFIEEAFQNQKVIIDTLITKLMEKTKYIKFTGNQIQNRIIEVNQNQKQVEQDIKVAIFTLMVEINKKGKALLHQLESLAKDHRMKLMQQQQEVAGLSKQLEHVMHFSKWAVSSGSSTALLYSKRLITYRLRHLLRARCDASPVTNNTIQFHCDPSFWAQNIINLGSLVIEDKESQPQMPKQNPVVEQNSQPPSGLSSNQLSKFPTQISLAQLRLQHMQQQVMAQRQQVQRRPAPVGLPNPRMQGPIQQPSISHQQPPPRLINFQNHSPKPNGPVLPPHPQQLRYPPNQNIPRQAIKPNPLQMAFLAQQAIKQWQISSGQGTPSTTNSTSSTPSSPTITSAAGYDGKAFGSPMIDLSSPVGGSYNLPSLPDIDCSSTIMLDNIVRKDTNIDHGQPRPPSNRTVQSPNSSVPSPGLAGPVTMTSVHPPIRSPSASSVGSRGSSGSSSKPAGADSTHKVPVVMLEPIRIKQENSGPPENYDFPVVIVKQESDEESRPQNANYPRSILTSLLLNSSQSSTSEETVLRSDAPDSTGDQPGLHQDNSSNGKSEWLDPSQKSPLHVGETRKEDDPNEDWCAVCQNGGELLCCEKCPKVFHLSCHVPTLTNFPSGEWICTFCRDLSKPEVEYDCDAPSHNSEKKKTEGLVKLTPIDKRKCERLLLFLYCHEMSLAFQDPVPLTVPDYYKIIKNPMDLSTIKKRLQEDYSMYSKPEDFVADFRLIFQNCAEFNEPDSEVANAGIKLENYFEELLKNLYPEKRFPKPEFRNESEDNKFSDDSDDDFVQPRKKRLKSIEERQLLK

[4] = target: T1, Peregrin; assay: Inhibition of BRPF1B (unknown origin) by Alpha Screen assay

COc1ccc(Oc2cc3c(cc2NS(=O)(=O)c2ccc(OC)c(OC)c2)n(C)c(=O)n3C)cc1
Kd [1]: 137 nM | Activity [2]: inactive | IC50 [3]: 430 nM | IC50 [4]: 340 nM
